Results as given in PubChem BioAssay (NCI).
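At the GI50, growth is halved. TGI marks complete inhibition of growth.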

Legend:
Assay in all cases: inhibition of tumour cell growth, NCI panel, 384-well format
[1] = system: COLO 205 colon
[2] = system: NCI-H226 lung
[3] = system: A549 NSCLC
[4] = system: SF-539 CNS
[5] = system: OVCAR-8 ovarian
[6] = system: HOP-92 NSCLC
[7] = system: MCF7 breast
[8] = system: MDA-MB-231 breast
[9] = system: UO-31 renal
[10] = system: SK-MEL-28 melanoma
[11] = system: IGROV1 ovarian
[12] = system: NCI-H460 NSCLC
[13] = system: SNB-75 CNS
[14] = system: HT29 colon
[15] = system: HS 578T breast
[16] = system: HCT-116 colon
[17] = system: UACC-62 melanoma
[18] = system: NCI/ADR-RES ovarian
[19] = system: U251 glioblastoma
[20] = system: KM12 colon
[21] = system: HL-60(TB) leukemia
[22] = system: SW-620 colon
[23] = system: NCI-H23 lung
[24] = system: CCRF-CEM leukemia
[25] = system: OVCAR-4 ovarian
[26] = system: HCC-2998 colon
[27] = system: EKVX NSCLC
[28] = system: MDA-MB-435 melanoma
[29] = system: DU-145 prostate

SMILES: C[C@H](Nc1ncnc2nc[nH]c12)c1cc2ccc(F)cc2nc1-c1ccccn1
- GI50 [1]: > 100 µM
- TGI [1]: > 100 µM
- GI50 [2]: 35.7 µM
- TGI [2]: > 100 µM
- GI50 [3]: > 100 µM
- TGI [3]: > 100 µM
- GI50 [4]: > 100 µM
- TGI [4]: > 100 µM
- GI50 [5]: > 100 µM
- TGI [5]: > 100 µM
- GI50 [6]: 12.7 µM
- TGI [6]: > 100 µM
- GI50 [7]: 21 µM
- TGI [7]: > 100 µM
- GI50 [8]: 53 µM
- TGI [8]: > 100 µM
- GI50 [9]: 49.9 µM
- TGI [9]: > 100 µM
- GI50 [10]: > 100 µM
- TGI [10]: > 100 µM
- GI50 [11]: 21.2 µM
- TGI [11]: 93.2 µM
- GI50 [12]: > 100 µM
- TGI [12]: > 100 µM
- GI50 [13]: 24.3 µM
- TGI [13]: > 100 µM
- GI50 [14]: > 100 µM
- TGI [14]: > 100 µM
- GI50 [15]: 24.7 µM
- TGI [15]: > 100 µM
- GI50 [16]: > 100 µM
- TGI [16]: > 100 µM
- GI50 [17]: 29.2 µM
- TGI [17]: > 100 µM
- GI50 [18]: > 100 µM
- TGI [18]: > 100 µM
- GI50 [19]: > 100 µM
- TGI [19]: > 100 µM
- GI50 [20]: > 100 µM
- TGI [20]: > 100 µM
- GI50 [21]: 3.53 µM
- TGI [21]: 24.3 µM
- GI50 [22]: > 100 µM
- TGI [22]: > 100 µM
- GI50 [23]: > 100 µM
- TGI [23]: > 100 µM
- GI50 [24]: 11 µM
- TGI [24]: > 100 µM
- GI50 [25]: > 100 µM
- TGI [25]: > 100 µM
- GI50 [26]: > 100 µM
- TGI [26]: > 100 µM
- GI50 [27]: 37.6 µM
- TGI [27]: > 100 µM
- GI50 [28]: > 100 µM
- TGI [28]: > 100 µM
- GI50 [29]: > 100 µM
- TGI [29]: > 100 µM
